Test results taken from paper PMC2790607, “Finding of the Low Molecular Weight Inhibitors of Resuscitation Promoting Factor Enzymatic and Resuscitation Activity” (PLoS ONE, 2009).
In brackets after ≈: the same amount, converted by molar mass. Where two headings read alike, the source gives them in different places.

Legend:
[1] = test system: M. smegmatis; format: cell-based, Mycobacterium smegmatis; conditions: at 0.1–1 µg/ml (not shown)
[2] = test system: M. smegmatis "non-culturable" cells; format: cell-based, Mycobacterium smegmatis; conditions: MPN assay
[3] = test system: Laccase(1.10.3.2); assay: Laccase activity (pyrocatechin, OD410); format: biochemical; conditions: control 3.6
Procedure: (§1) Alcoholdehydrohenase(1.1.1.1) activity: ADH was dissolved in 50 mM phospahe buffer pH 7 at the concentration 10 µg/ml. The rate of the reaction was judged by transformation of NAD^+ (1 mM) into NADH+H^+. As the substrate ethanol was used. Activity was measured by OD340. Laccase(1.10.3.2) activity: Laccase was dissolved in the 50 mM citrate-phosphate buffer, pH4.5 at concentration 9 µg/ml. Pyrocatechin was used at concentration 11 µg/ml. Activity was measured by OD410. Trypsin(3.4.21.4) activity: The enzyme at concentration 8.0 µg/ml was dissolved in 50 mM Tris-HCl buffer pH 8.0. Concentration of the substrate (N-CBz-Gly-Gly-Arg-β-naphthylamide - Sigma-Aldrich)- 11 µg/ml. Registration of the kinetic curves was made fluorimetrically - excitation wavelength - 330 nm; emission - 420 nm. (0.02 MB DOC) Click here for additional data file.

[4] = molecular target: T1, Rpf Sm (Micrococcus luteus, UniProt O86308); assay: Muralytic activity of Rpf, 4-MUF-3-NAG hydrolysis; format: biochemical, M. luteus
T1 construct: His-tag (inferred from the pET19b vector and the Ni2+-chelation purification); made in house; host or cells: E. coli HSM174 (DE3)
Procedure: The truncated form of M.luteus Rpf (RpfSm) was used for the analysis. The truncated protein contained conserved Rpf domain and additional 20 amino acids of the gene product, corresponding to the following amino acid sequence:
To determine a muralytic activity of the recombinant Rpfs', 4-methylumbelliferyl-β-D-N, N′, N″-triacetylchitotrioside (4-MUF-3-NAG) (“Sigma”, Germany) was applied. […] A number of experiments were performed in the presence of NPT compounds, in concentration range of 0.5–10 µg/ml. After 3 hours of incubation at 37°C, 2 µl of 10 M NaOH was added and the samples were frozen and kept at −20°C. […] The intensity of fluorescence was detected by the RF-5301PC fluorimeter (“SHIMADZU”, Japan) using excitation wavelength of 364 nm and a read-out of 448 nm.

[5] = molecular target: T2, ΔDUFRpf B (Mycobacterium tuberculosis, UniProt P9WG29); format: binding, M. tuberculosis
[6] = test system: Trypsin(3.4.21.4); assay: Trypsin activity (fluorimetric); format: biochemical; conditions: control 10
Procedure: as §1

[7] = test system: Micrococcus luteus; assay: microbe, parasite or virus in culture; format: cell-based; conditions: Micrococcus luteus; lowest concentration which suppresses growth; determined during 24 hours; NI = no inhibition was observed
[8] = test system: Alcoholdehydrohenase(1.1.1.1); assay: Alcoholdehydrogenase activity (NAD+ to NADH, OD340); format: biochemical; conditions: control 1.7
Procedure: as §1

[9] = molecular target: T2, ΔDUFRpf B; set-up: species or system M. tuberculosis; conditions: inhibitor 2 and 4 µg/ml, ΔDUFRpf B 60 µg/ml
[10] = molecular target: T1, Rpf Sm; conditions: inhibitor 2 and 4 µg/ml, Rpf Sm 40 µg/ml
[11] = test system: M. tuberculosis "non-culturable" cells; format: cell-based, Mycobacterium tuberculosis; conditions: inhibitor 10 µg/ml

T2 sequence (P9WG29 whole entry, looked up, stated change not applied): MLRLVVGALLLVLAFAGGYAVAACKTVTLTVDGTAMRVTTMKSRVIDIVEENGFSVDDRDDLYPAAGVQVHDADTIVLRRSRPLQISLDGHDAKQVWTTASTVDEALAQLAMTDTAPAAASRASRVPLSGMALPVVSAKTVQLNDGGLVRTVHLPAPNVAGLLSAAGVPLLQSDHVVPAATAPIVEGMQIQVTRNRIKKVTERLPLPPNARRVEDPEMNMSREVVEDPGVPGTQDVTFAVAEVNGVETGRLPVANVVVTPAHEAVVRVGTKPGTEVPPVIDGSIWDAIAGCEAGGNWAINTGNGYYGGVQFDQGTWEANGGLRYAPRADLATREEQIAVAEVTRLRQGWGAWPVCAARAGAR
T1 sequence (O86308 42-134): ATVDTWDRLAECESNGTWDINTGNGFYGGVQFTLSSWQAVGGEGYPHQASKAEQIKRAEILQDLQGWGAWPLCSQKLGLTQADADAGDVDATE

SMILES: N#CSc1ccc(C(=O)c2ccccc2)cc1[N+](=O)[O-] [VII, 4-Benzoyl-2-nitrophenyl thiocyanate]
- growth of active cells of M. smegmatis [1]: did not inhibit growth
- concentrations active in suppressing resuscitation of M. smegmatis [2]: 0.1 to 1 µg/mL
- τ1/2, time needed to achieve a 50% level of substrate conversion, Laccase ([3]; compound 4 µg/ml): 3.6 s
- τ1/2, time needed to achieve a 50% level of substrate conversion, Laccase ([3]; compound 10 µg/ml): 3.5 s
- melting point: 104 to 106 °C
- IC50 [4]: 6.68 µM
- type of inhibition of Rpf-Sm muralytic activity (Lineweaver-Burk plot) ([4]; substrate 3 to 24 µM, inhibitor 0.5 to 10 µg/ml): non-competitive inhibition
- interaction with the buried tryptophanes of ΔDUFRpfB ([5]; fluorescence studies): interacted with at least two exposed and one buried tryptophan
- accessible fraction of ΔDUFRpfB tryptophanes (fa) ([5]; modified Stern-Volmer equation, excitation 280 nm, emission 340 nm): ~65%
- τ1/2, time needed to achieve a 50% level of substrate conversion, Trypsin ([6]; compound 4 µg/ml): 10 s
- τ1/2, time needed to achieve a 50% level of substrate conversion, Trypsin ([6]; compound 10 µg/ml): 10 s
- MIC [7]: 1 to 5 µg/mL (≈ 3.52 to 17.6 µM)
- τ1/2, time needed to achieve a 50% level of substrate conversion, Alchoholdehydrohenase ([8]; compound 4 µg/ml): 1.75 s
- τ1/2, time needed to achieve a 50% level of substrate conversion, Alchoholdehydrohenase ([8]; compound 10 µg/ml): 1.7 s
- changes in the CD spectra of ΔDUFRpf B [9]: did not produce significant changes
- changes in the CD spectra of Rpf Sm [10]: did not produce significant changes
- MPN, logarithmic transformation of cell concentration (cells/ml) ([11]; time 0 days): 3.48
- MPN, logarithmic transformation of cell concentration (cells/ml) ([11]; time 14 days): 3.48
- MPN, logarithmic transformation of cell concentration (cells/ml) ([11]; time 19 days): 3.48
- MPN, logarithmic transformation of cell concentration (cells/ml) ([11]; time 21 days): 3.86
- MPN, logarithmic transformation of cell concentration (cells/ml) ([11]; time 23 days): 5.38
- MPN, logarithmic transformation of cell concentration (cells/ml) ([11]; time 27 days): 6.18
- MPN, logarithmic transformation of cell concentration (cells/ml) ([11]; time 30 days): 6.18
- MPN, logarithmic transformation of cell concentration (cells/ml) ([11]; time 33 days): 6.18
- MPN, logarithmic transformation of cell concentration (cells/ml) ([11]; time 36 days): 6.18
- MPN, logarithmic transformation of cell concentration (cells/ml) ([11]; time 40 days): 6.18
